Reference: ChEMBL document CHEMBL1201861, “Genomics of Drug Sensitity in Cancer screening data, Wellcome Trust Sanger Institute”

Tests used:
Experiment in all cases: cells
Conditions in all cases: Homo sapiens
RH-1 = assay type: functional, cell-based
NCI-H23 = assay type: functional, cell-based
COLO-668 = assay type: functional, cell-based
LAMA-84 = assay type: functional, cell-based
ATN-1 = assay type: functional, cell-based
SH-4 = assay type: functional, cell-based
A704 = assay type: functional, cell-based
SW872 = assay type: functional, cell-based
MHH-NB-11 = assay type: functional, cell-based
SNU1 = assay type: functional, cell-based
COR-L88 = assay type: functional, cell-based
HDLM-2 = assay type: functional, cell-based
QIMR-WIL = assay type: functional, cell-based
ES8 = assay type: functional, cell-based
EW-3 = assay type: functional, cell-based
HEL = assay type: functional, cell-based
IST-MEL1 = assay type: functional, cell-based
COLO-824 = assay type: functional, cell-based
ES6 = assay type: functional, cell-based
AM-38 = assay type: functional, cell-based
TGBC1TKB = assay type: functional, cell-based
no-10 = assay type: functional, cell-based
DOHH-2 = assay type: functional, cell-based
SHP77 = assay type: functional, cell-based, SHP-77
HD-MY-Z = assay type: functional, cell-based
KE-37 = assay type: functional, cell-based
KNS-81-FD = assay type: functional, cell-based
TE-1 = assay type: functional, cell-based
NEC8 = assay type: functional, cell-based
KU812 cell line = assay type: functional, cell-based
EW-13 = assay type: functional, cell-based
NCI-H747 = assay type: functional, cell-based
HCC2218 = assay type: functional, cell-based
ETK-1 = assay type: functional, cell-based
SCH = assay type: functional, cell-based
COLO-800 = assay type: functional, cell-based
D-263MG = assay type: functional, cell-based
TE-12 = assay type: functional, cell-based
K5 = assay type: functional, cell-based
A498 = assay type: functional, cell-based
J-RT3-T3-5 = assay type: functional, cell-based
Lu-65 = assay type: functional, cell-based
no-11 = assay type: functional, cell-based
IST-MES1 = assay type: functional, cell-based
HAL-01 = assay type: functional, cell-based
SW684 = assay type: functional, cell-based
EKVX = assay type: functional, cell-based
TE-5 = assay type: functional, cell-based
NCI-H69 = assay type: functional, cell-based
U-87 MG = assay type: functional, cell-based, U-87MG ATCC
SK-MEL-2 = assay type: functional, cell-based
SF-126 = assay type: functional, cell-based
EW-16 = assay type: functional, cell-based
GI-1 = assay type: functional, cell-based
NOS-1 = assay type: functional, cell-based
GAK = assay type: functional, cell-based
SBC-1 = assay type: functional, cell-based
KM-H2 = assay type: functional, cell-based
SW 954 = assay type: functional, cell-based
C2BBe1 = assay type: functional, cell-based
EW-11 = assay type: functional, cell-based
NB10 = assay type: functional, cell-based
NCI-H1770 = assay type: functional, cell-based
MPP-89 = assay type: functional, cell-based
COLO-684 = assay type: functional, cell-based
LNCaP-Clone-FGC = assay type: functional, cell-based

## C[C@]12O[C@H](C[C@]1(O)CO)n1c3ccccc3c3c4c(c5c6ccccc6n2c5c31)CNC4=O [LESTAURTINIB]
RH-1
  IC50: 149 nM
NCI-H23
  IC50: 1690 nM
COLO-668
  IC50: > 2000 nM
LAMA-84
  IC50: 48.5 nM
ATN-1
  IC50: 104 nM
SH-4
  IC50: 110 nM
A704
  IC50: 967 nM
SW872
  IC50: > 2000 nM
MHH-NB-11
  IC50: 1110 nM
SNU1
  IC50: 183 nM
COR-L88
  IC50: > 2000 nM
HDLM-2
  IC50: > 2000 nM
QIMR-WIL
  IC50: 94.1 nM
ES8
  IC50: 132 nM
EW-3
  IC50: 125 nM
HEL
  IC50: 204 nM
IST-MEL1
  IC50: 196 nM
COLO-824
  IC50: > 2000 nM
ES6
  IC50: > 2000 nM
AM-38
  IC50: > 2000 nM
TGBC1TKB
  IC50: > 2000 nM
no-10
  IC50: > 2000 nM
DOHH-2
  IC50: 184 nM
SHP77
  IC50: > 2000 nM
HD-MY-Z
  IC50: 13.9 nM
KE-37
  IC50: 16.8 nM
KNS-81-FD
  IC50: 1480 nM
TE-1
  IC50: 553 nM
NEC8
  IC50: 268 nM
KU812 cell line
  IC50: 1010 nM
EW-13
  IC50: > 2000 nM
NCI-H747
  IC50: 1050 nM
HCC2218
  IC50: > 2000 nM
ETK-1
  IC50: 856 nM
SCH
  IC50: > 2000 nM
COLO-800
  IC50: 190 nM
D-263MG
  IC50: 971 nM
TE-12
  IC50: > 2000 nM
K5
  IC50: 145 nM
A498
  IC50: 221 nM
J-RT3-T3-5
  IC50: 365 nM
Lu-65
  IC50: > 2000 nM
no-11
  IC50: > 2000 nM
IST-MES1
  IC50: > 2000 nM
HAL-01
  IC50: 306 nM
SW684
  IC50: 1920 nM
EKVX
  IC50: 606 nM
TE-5
  IC50: > 2000 nM
NCI-H69
  IC50: > 2000 nM
U-87 MG
  IC50: > 2000 nM
SK-MEL-2
  IC50: 26.6 nM
SF-126
  IC50: 273 nM
EW-16
  IC50: 226 nM
GI-1
  IC50: 546 nM
NOS-1
  IC50: 949 nM
GAK
  IC50: […]
SBC-1
  IC50: 60.6 nM
KM-H2
  IC50: > 2000 nM
SW 954
  IC50: 291 nM
C2BBe1
  IC50: 361 nM
EW-11
  IC50: 132 nM
NB10
  IC50: 338 nM
NCI-H1770
  IC50: > 2000 nM
MPP-89
  IC50: 1040 nM
COLO-684
  IC50: 853 nM
LNCaP-Clone-FGC
  IC50: 353 nM

## CCNC(=O)c1noc(-c2cc(C(C)C)c(O)cc2O)c1-c1ccc(CN2CCOCC2)cc1 [LUMINESPIB]
RH-1
  IC50: 62.3 nM
NCI-H23
  IC50: 241 nM
COLO-668
  IC50: 79.8 nM
LAMA-84
  IC50: 41.7 nM
ATN-1
  IC50: > 256 nM
SH-4
  IC50: 41.4 nM
A704
  IC50: > 256 nM
SW872
  IC50: 32.2 nM
MHH-NB-11
  IC50: 254 nM
SNU1
  IC50: 78.9 nM
COR-L88
  IC50: 171 nM
HDLM-2
  IC50: 41.1 nM
QIMR-WIL
  IC50: […]
ES8
  IC50: 35.4 nM
EW-3
  IC50: 175 nM
HEL
  IC50: 38.9 nM
IST-MEL1
  IC50: 8.52 nM
COLO-824
  IC50: 110 nM
ES6
  IC50: […]
AM-38
  IC50: […]
TGBC1TKB
  IC50: 210 nM
no-10
  IC50: 30.2 nM
DOHH-2
  IC50: 186 nM
SHP77
  IC50: 145 nM
HD-MY-Z
  IC50: 144 nM
KE-37
  IC50: 56.8 nM
KNS-81-FD
  IC50: 69.2 nM
TE-1
  IC50: 15.8 nM
NEC8
  IC50: > 256 nM
KU812 cell line
  IC50: 36.8 nM
EW-13
  IC50: 5.18 nM
NCI-H747
  IC50: 45.7 nM
HCC2218
  IC50: 100 nM
ETK-1
  IC50: 28.1 nM
SCH
  IC50: > 256 nM
COLO-800
  IC50: > 256 nM
D-263MG
  IC50: 56.8 nM
TE-12
  IC50: 17.8 nM
K5
  IC50: […]
A498
  IC50: > 256 nM
J-RT3-T3-5
  IC50: 89.7 nM
Lu-65
  IC50: 202 nM
no-11
  IC50: 30.5 nM
IST-MES1
  IC50: > 256 nM
HAL-01
  IC50: > 256 nM
SW684
  IC50: > 256 nM
EKVX
  IC50: 105 nM
TE-5
  IC50: > 256 nM
NCI-H69
  IC50: > 256 nM
U-87 MG
  IC50: 32.9 nM
SK-MEL-2
  IC50: 125 nM
SF-126
  IC50: 50.1 nM
EW-16
  IC50: 7.49 nM
GI-1
  IC50: 148 nM
NOS-1
  IC50: 15.9 nM
GAK
  IC50: 57.3 nM
SBC-1
  IC50: > 256 nM
KM-H2
  IC50: 72.4 nM
SW 954
  IC50: 10.7 nM
C2BBe1
  IC50: 199 nM
EW-11
  IC50: 75.4 nM
NB10
  IC50: 237 nM
NCI-H1770
  IC50: 58.8 nM
MPP-89
  IC50: 97.2 nM
COLO-684
  IC50: 81.6 nM
LNCaP-Clone-FGC
  IC50: 81.7 nM
